Assay results reported in publication PMC11905876, “Population Pharmacokinetic Modeling of Certepetide in Human Subjects With Metastatic Pancreatic Ductal Adenocarcinoma” (Clinical Pharmacology in Drug Development, 2025).

Key:
[1] = Population pharmacokinetic analysis of certepetide plasma concentrations (first-in-human trial NCT03517176); type: in vivo; conditions: for WT on Vc, effect of weight on Vc / WT on Vp, effect of weight on Vp: power model exponent
Method: The clinical aspects of this study were conducted at 3 clinical sites in Australia. All subjects gave their informed consent. The study enrolled subjects with metastatic PDAC and was a rising dose design, with certepetide doses of 0.2, 0.8, 1.6, and 3.2 mg/kg body weight. Each subject received a certepetide monotherapy run‐in followed by 28‐day cycles of certepetide with standard‐of‐care chemotherapy (nab‐paclitaxel and gemcitabine), as previously described.[19] Each 28‐day cycle involved dosing with nab‐paclitaxel, gemcitabine, and certepetide on days 1, 8, and 15. In each dosing instance, nab‐paclitaxel was given first intravenously at a dose of 125 mg/m^2 over 30 minutes. This was immediately followed by the administration of certepetide as a slow intravenous push over 1 minute. Gemcitabine was given as an intravenous infusion at a dose of 1000 mg/m^2 over 30 minutes. Samples for PK analysis were collected before certepetide dosing and at 3, 15, and 30 minutes and 1, 3, and 6 hours after completion of the certepetide infusion. PK collections were performed during a monotherapy run‐in period and on day 1 of chemotherapy cycles 1 and 6. Modeling was performed with all available data.
Certepetide concentrations in human plasma were determined using a liquid chromatography‐tandem mass spectrometry method across a concentration range of 50.0‐2500 ng/mL, with 50.0 ng/mL as the lower limit of quantification. Briefly, a plasma sample was spiked with a deuterated internal standard and then precipitated by methanol. After centrifugation, the supernatant was transferred to a clean tube and evaporated under nitrogen. Following reconstitution with 5% methanol:water, the sample was injected into a Shimadzu Nexera UPLC that used a Kinetex EVO‐C18 column for separation using first mobile phase A (0.1% formic acid in deionized water) followed by mobile phase B (0.1% formic acid in methanol). The multiple reaction monitoring transition was monitored on an ABSciex QTRAP 5500 mass spectrometer. The transitions used for certepetide and deuterated certepetide (+6) were 494.9 → 70.1 and 497.7 → 75.0, respectively. For intraday runs, the average accuracy and precision were 10.2% and 9.6%, respectively, at a concentration of 150 ng/mL. The inter‐day accuracy and precision were 10.2% and 9.7%, respectively.
The PK analysis dataset was composed of actual dates and times of dose and concentration samples. Post‐dose PK concentration data below the limit of quantification were accounted for using the M1 method (ie, excluded from the analysis).[22] Subject covariates at baseline were derived from the source data at the baseline visit, the screening visit, or another visit before the start of certepetide administration.
NONMEM software (version 7.5.1, ICON Development Solutions)[23] was used to perform nonlinear mixed‐effects modeling. Data assembly, graphical analyses, and model simulations were performed using NONMEM (version 7.5.1) and R (version 4.3.1).
A 2‐compartment model with linear elimination was used as the starting point for model development. Interindividual variability was included in structural model parameters (eg, central volume of distribution [Vc], clearance [CL], peripheral volume of distribution [Vp], and distribution clearance [Q]). Interindividual variability, assumed to have log‐normal distribution, was calculated using Equation (1). (1) θP,i=θP,typical·e^ηP,i
The residual variance was initially modeled using an additive and proportional error model (Equation 4), which accounted for […], assay error, model misspecification, and any potential data issues (eg, incorrect dose or sample collection times). (4) Yij=IPREDij×1+ε1,ij+ε2,ij
Model development continued by adding covariates in a stepwise fashion and assessing the change in objective function value (OFV). […]

[2] = autoradiography; ref data on file; cited from earlier work
Method: (§1) Certepetide is administered as a slow intravenous push over 1 minute shortly after the administration of chemotherapy and/or immunotherapy. Certepetide is thought to be metabolized into its component amino acids, as expected for small peptides.

plasma proteins = conditions: ref data on file; cited from earlier work
Method: as §1

[3] = test system: patients with unresectable metastatic PDAC; parameters: method as in PMID 35803294, PMID 36982773; conditions: cited from earlier work
[4] = final population PK model, reference 70 kg
[5] = interim population PK model with body weight and age on clearance, typical value

Dose linearity of PK ([1]; concentration-time and dose-normalized curves at 0.2, 0.8, 1.6 and 3.2 mg/kg): linear PKs
Vc, central volume of distribution ([1]; final population PK model (2-compartment, linear elimination, NONMEM), 31 patients with metastatic PDAC, 0.2-3.2 mg/kg IV push over 1 min with nab-paclitaxel and gemcitabine, plasma LC-MS/MS, typical value, reference 70 kg): 5.87 L
Q, intercompartmental clearance ([1]; final population PK model, 31 patients with metastatic PDAC, IV, typical value): 24.9 L/h
CLR, renal clearance (dependent on CrCL) ([1]; final population PK model, 31 patients with metastatic PDAC, IV, typical value at reference CrCL 90 mL/min, purely model-derived): 4.32 L/h
Vp, peripheral volume of distribution ([1]; final population PK model, 31 patients with metastatic PDAC, IV, typical value, reference 70 kg): 10.3 L
CLNR, nonrenal clearance (independent of CrCL) ([1]; final population PK model, 31 patients with metastatic PDAC, IV, typical value, purely model-derived): 2.56 L/h
WT on Vc, effect of weight on Vc [1, 4]: 0.933
WT on Vp, effect of weight on Vp [1, 4]: 0.879
WT on Vc, effect of weight on Vc ([1]; interim population PK model): 0.940
WT on Vp, effect of weight on Vp ([1]; interim population PK model): 0.885
Structure (SMILES): CC(=O)N[C@H]1CSSC[C@@H](C(N)=O)NC(=O)[C@H](CC(=O)O)NC(=O)[C@@H]2CCCN2C(=O)CNC(=O)[C@H](CCCCN)NC(=O)[C@H](CC(=O)O)NC(=O)CNC(=O)[C@H](CCCNC(=N)N)NC1=O [Certepetide]
clearance ([1]; human, plasma, iv, interim population PK model with body weight and age on clearance, typical value, reference 70 kg, 60 years, read-out: CL, clearance (converted)): 118 mL/min
Vc, central volume of distribution ([1]; interim population PK model with body weight and age on clearance, 31 patients with metastatic PDAC, IV, typical value): 5.87 L
Q, intercompartmental clearance [1, 5]: 25.0 L/h
Vp, peripheral volume of distribution [1, 5]: 10.3 L
Route of elimination [2]: primarily undergoes renal elimination
Plasma protein binding (plasma proteins): does not bind to plasma proteins
Patients with ≥50% reduction in CA19-9 ([3]; cycle 5, day 1, certepetide with nab-paclitaxel and gemcitabine): 20 out of 22
Dose-limiting toxicities associated with the study drug ([3]; doses 0.2-3.2 mg/kg): no dose‐limiting toxicities
